This note sets out measurements from patent US8575203B2, “Chemical compounds” (Boehringer Ingelheim International GmbH, priority 2010, dated 2013).

What is called IC50 is the midpoint of a concentration-inhibition curve.

Chain of Recombinant human PDK1 enzyme (aa 52-556) (O15530 52-556): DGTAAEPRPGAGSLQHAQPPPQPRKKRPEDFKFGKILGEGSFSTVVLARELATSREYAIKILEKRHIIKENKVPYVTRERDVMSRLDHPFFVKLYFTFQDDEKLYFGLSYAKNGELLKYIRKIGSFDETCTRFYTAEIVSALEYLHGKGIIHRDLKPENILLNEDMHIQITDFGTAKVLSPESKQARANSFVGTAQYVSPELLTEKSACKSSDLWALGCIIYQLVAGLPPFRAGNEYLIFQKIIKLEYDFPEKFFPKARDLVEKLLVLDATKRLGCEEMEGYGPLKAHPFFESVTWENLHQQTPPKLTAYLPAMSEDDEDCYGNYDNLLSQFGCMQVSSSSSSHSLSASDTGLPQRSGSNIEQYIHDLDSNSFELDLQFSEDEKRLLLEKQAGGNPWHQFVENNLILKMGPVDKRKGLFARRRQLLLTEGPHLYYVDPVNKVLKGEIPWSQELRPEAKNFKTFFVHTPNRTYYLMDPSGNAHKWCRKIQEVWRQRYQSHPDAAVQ

For the experiment, the target named is Recombinant human PDK1 enzyme (aa 52-556) (Homo sapiens (Human), UniProt O15530). Briefly: PDK1 kinase assay. Type of experiment: biochemical. Particulars: in vitro kinase assay, His6-PDK1 (aa 52-556), PDKtide, P33-ATP. As to the method:
The activity of the compounds according to the invention on the kinase PDK1 which inhibits the signal transduction pathway is determined in an in vitro kinase assay with recombinantly prepared protein:
Recombinant human PDK1 enzyme (aa 52-556) linked at its N-terminal end to His6 is isolated from baculovirus-infected insect cells. Purified enzyme may be obtained for example from the University of Dundee, Scotland. The following components are combined in a well of a 96-well round-based dish (Greiner bio-one, No. 650101): • 15 μL of compound to be tested in varying concentrations (e.g. starting at 10 μM, and diluted in steps of 1:5) in APT buffer (50 mM Tris/Cl pH 7.5; 0.05% β-mercaptoethanol; 10 mM Mg-acetate; 0.0166% Tween 20; 3.33% DMSO) • 15 μL His6-PDK1 (aa 52-556) 3.33 ng/well) and PDKtide ([…]), synthesised by Pepceuticals Limited, Nottingham, United Kingdom; 25 μM final concentration); His6-PDK1 and PDKtide are together diluted accordingly in assay buffer (50 mM tris pH 7.5, 0.05% β-mercaptoethanol, 10 mM Mg-acetate); PDKtide is present in this mixture as an 83.3 μM solution. These 30 μl are routinely incubated for 30 min at RT. • 20 μL ATP solution (25 μM ATP with 1.0 μCi/well gamma-P33-ATP). The final concentration of Tween 20 is 0.005%.
The reaction is started by adding the ATP solution and the mixture is incubated for 90 min at RT. At the start of the reaction the dishes are shaken gently. The reaction is stopped by the addition of 50 μL/well of 500 mM phosphoric acid (H3PO4) and incubated for about 20 min at RT. The precipitate is transferred by harvesting onto filter plates (96-well microtitre filter plate: UniFilter GF/C; Perkin Elmer; No. 6005174), then washed 6 times with 50 mM H3PO4 and dried at 60° C. Then the plate is stuck down with sealing tape, 25 μL/well of scintillation solution (Microscint 0; Perkin Elmer; No. 6013611) are added and the amount of P33 precipitated is measured using the Wallac Betacounter. The measured data are evaluated using Graphpad Prism software.
Take `CCN1CCC(Nc2cnc3ccc(C#CCNC(=O)c4cccn(Cc5ccc(F)c(F)c5)c4=O)cc3n2)CC1` [I-46]: the IC50 was 7 nM.

On to `CCN(CC)c1c(C#N)cnc2ccc(C#CCNC(=O)c3cccn(Cc4ccc(F)c(F)c4)c3=O)cc12` [II-100], for which the IC50 came to 276 nM.

On to `CCN(CC)c1ncnc2ccc(C#CCNC(=O)c3cccn([C@@H](C)c4ccccc4)c3=O)cc12` [II-55], for which the IC50 was 60 nM.

Take `CCOc1ccnc2ccc(C#CCNC(=O)c3cccn(Cc4ccc(F)c(F)c4)c3=O)cc12` [I-94]: the concentration for half-maximal inhibition (IC50) worked out at 55 nM. Then `O=C(NCC#Cc1ccc2ncnc(N3CC[C@H](O)C3)c2c1)c1cccn(Cc2ccc(F)c(F)c2)c1=O` [II-31], with 114 nM; and `CN(C)c1cnc2ccc(C#CCNC(=O)c3cncn(Cc4ccc(F)c(F)c4)c3=O)cc2n1` [I-15], with 68 nM. The figure for `O=C(NCC#Cc1ccc2ncc(NC3CCN(C4CC4)CC3)nc2c1)c1cncn(Cc2ccc(F)c(F)c2)c1=O` [I-23] is 8 nM. Then `CN1CCN(Nc2cnc3ccc(C#CCNC(=O)c4cncn(Cc5ccc(F)c(F)c5)c4=O)cc3n2)CC1` [I-36], with 87 nM; and `O=C(NCC#Cc1ccc2nccc(OCC3CCCOC3)c2c1)c1cccn(Cc2ccc(F)c(F)c2)c1=O` (stereo not shown) [I-125.8], with 46 nM; and `O=C(NCC#Cc1ccc2ncc(N[C@H]3CC[C@H](O)CC3)nc2c1)c1cncn(Cc2ccc(F)c(F)c2)c1=O` [I-39], with 21 nM.

Consider `CN(C)CCCOc1ccnc2ccc(C#CCNC(=O)c3cccn(Cc4cc(F)c(F)c(F)c4)c3=O)cc12` [I-125.2], for which the IC50 amounted to 5 nM. The figure for `Cc1c(C#CCNC(=O)c2cncn(Cc3ccc(F)c(F)c3)c2=O)ccc2ncc(C(=O)O)cc12` [I-83] is 62 nM. Then `O=C(NCC#Cc1ccc2ncc(N[C@H]3CC[C@H](N4CCN(CC5CC5)CC4)CC3)nc2c1)c1cncn(Cc2ccc(F)c(F)c2)c1=O` [I-42], with 3 nM; and `CN1CCC(NC(=O)c2cnc3ccc(C#CCNC(=O)c4cncn(Cc5ccc(F)c(F)c5)c4=O)cc3c2)CC1` [II-74], with 12 nM.

As for `CN(C)CCNc1cnc2ccc(C#CCNC(=O)c3cncn(Cc4ccc(F)c(F)c4)c3=O)cc2n1` [I-12], the half-inhibitory concentration (IC50) is 35 nM.

With `CN(C)c1ccnc2ccc(C#CCNC(=O)c3cncn(Cc4ccc(F)c(F)c4)c3=O)cc12` [I-90], the IC50 came out at 110 nM.

For the molecule `CN(c1c(C#N)cnc2ccc(C#CCNC(=O)c3cccn(Cc4ccc(F)c(F)c4)c3=O)cc12)C1CCCCC1` [II-95], the half-maximal inhibitory concentration (IC50) is 544 nM. The figure for `CNc1ncnc2ccc(C#CCNC(=O)c3cccn([C@@H](C)c4ccc(F)c(F)c4)c3=O)cc12` [II-60] is 8 nM; for `CN(C)C(=O)CNc1ncnc2ccc(C#CCNC(=O)c3cccn(Cc4ccc(F)c(F)c4)c3=O)cc12` [II-50] it is 182 nM; for `CN(Cc1ccccc1)c1ncnc2ccc(C#CCNC(=O)c3cncn(Cc4ccc(F)c(F)c4)c3=O)cc12` [II-5] it is 16 nM. The figure for `COc1ccnc2ccc(C#CCNC(=O)c3cccn(Cc4ccc(F)c(F)c4)c3=O)cc12` [I-92] is 128 nM. The figure for `O=C(NCC#Cc1ccc2ncc(N[C@H]3CC[C@H](N4CCOCC4)CC3)nc2c1)c1cccn([C@H](CO)c2cccc(F)c2)c1=O` [I-64] is 5 nM; for `O=C(NCC#Cc1ccc2nccc(OC3CCNCC3)c2c1)c1cccn(Cc2ccc(F)c(F)c2)c1=O` [I-114] it is 23 nM; for `CN1CCC(Nc2cnc3ccc(C#CCNC(=O)c4cncn(Cc5ccc(F)c(F)c5)c4=O)cc3c2)CC1` [I-70] it is 1 nM.

`O=C(NCC#Cc1ccc2nccc(OCC3CCCO3)c2c1)c1cncn(Cc2ccc(F)c(F)c2)c1=O` (stereo not shown) [I-121]: the concentration for half-maximal inhibition (IC50) was 156 nM. For the molecule `CCN1CCC(Nc2cnc3ccc(C#CCNC(=O)c4cccn([C@@H](C)c5ccc(F)c(F)c5)c4=O)cc3c2)CC1` [I-75], the IC50 came to 1 nM.

With `CN(C)CC(O)COc1ccnc2ccc(C#CCNC(=O)c3cncn(Cc4ccc(F)c(F)c4)c3=O)cc12` (stereo not shown) [I-104], the IC50 is 71 nM. Then `CN(Cc1cnn(-c2ccc(F)cc2)c1)c1ncnc2ccc(C#CCNC(=O)c3cccn(Cc4ccc(F)c(F)c4)c3=O)cc12` [II-44], with 40 nM; and `O=C(NCC#Cc1ccc2ncc(N[C@H]3CC[C@H](N4CCOCC4)CC3)nc2c1)c1cccn([C@H](CO)c2ccccc2)c1=O` [I-59], with 5 nM. Consider `N[C@H]1CC[C@@H](Nc2cnc3ccc(C#CCNC(=O)c4cncn(Cc5ccc(F)c(F)c5)c4=O)cc3n2)CC1` [I-33], for which the IC50 was found to be 40 nM. In the case of `O=C(NCC#Cc1ccc2ncc(NC3CCN(C4COC4)CC3)nc2c1)c1ccnn(Cc2ccc(F)c(F)c2)c1=O` [I-54], the 50% inhibitory concentration (IC50) worked out at 8 nM. The figure for `CNc1ncnc2ccc(C#CCNC(=O)c3cncn(Cc4ccccc4F)c3=O)cc12` [II-53] is 486 nM. Then `CN(Cc1ccccc1)c1c(C#N)cnc2ccc(C#CCNC(=O)c3cccn(Cc4ccc(F)c(F)c4)c3=O)cc12` [II-98], with 184 nM.

For the molecule `CN(CC1CCCCC1)c1c(C#N)cnc2ccc(C#CCNC(=O)c3cccn(Cc4ccc(F)c(F)c4)c3=O)cc12` [II-99], the IC50 came out at 683 nM. As for `CC(C)(C)COc1ccnc2ccc(C#CCNC(=O)c3cccn(C(CO)c4ccc(F)c(F)c4)c3=O)cc12` (stereo not shown) [I-125.14], the half-inhibitory concentration (IC50) turned out to be 60 nM.

For `CN(C)CCNc1ccnc2ccc(C#CCNC(=O)c3cncn(Cc4ccc(F)c(F)c4)c3=O)cc12` [I-117], the IC50 amounted to 1000 nM. The figure for `CN(C)CC(C)(C)CNc1cnc2ccc(C#CCNC(=O)c3cncn(Cc4ccc(F)c(F)c4)c3=O)cc2n1` [I-25] is 42 nM; for `CN(C)CCCN(C)c1cnc2ccc(C#CCNC(=O)c3cncn(Cc4ccc(F)c(F)c4)c3=O)cc2n1` [I-13] it is 34 nM. Then `O=C(NCC#Cc1ccc2nccc(OC3CCNCC3)c2c1)c1cncn(Cc2ccc(F)c(F)c2)c1=O` [I-113], with 15 nM; and `CC(=O)N[C@@H]1CCN(c2ncnc3ccc(C#CCNC(=O)c4cccn(Cc5ccc(F)c(F)c5)c4=O)cc23)C1` [II-30], with 21 nM. The figure for `O=C(NCC#Cc1ccc2ncc(-c3ccccc3)cc2c1)c1cncn(Cc2ccc(F)c(F)c2)c1=O` [I-81] is 66 nM; for `O=C(NCC#Cc1ccc2ncnc(NCCCn3ccnc3)c2c1)c1cncn(Cc2ccc(F)c(F)c2)c1=O` [II-11] it is 135 nM; for `O=C(NCC#Cc1ccc2nccc(OCC3CCOC3)c2c1)c1cccn(C(CO)c2ccc(F)c(F)c2)c1=O` (stereo not shown) [I-125.4] it is 12 nM.

In the case of `O=C(NCC#Cc1ccc2ncnc(NC3CCN(Cc4ccccc4)CC3)c2c1)c1cncn(Cc2ccc(F)c(F)c2)c1=O` [II-23], the IC50 amounted to 142 nM.

For the molecule `CN1CCC[C@@H](COc2ccnc3ccc(C#CCNC(=O)c4cccn(Cc5cc(F)c(F)c(F)c5)c4=O)cc23)C1` [I-125.17], the IC50 turned out to be 2 nM. The figure for `CCN1CCC(Nc2cnc3ccc(C#CCNC(=O)c4cncn(Cc5ccc(F)c(F)c5)c4=O)cc3c2)CC1` [I-71] is 4 nM; for `CN(C)CCCCOc1ccnc2ccc(C#CCNC(=O)c3cncn(Cc4ccc(F)c(F)c4)c3=O)cc12` [I-125.3] it is 5 nM. With `O=C(NCC#Cc1ccc2nccc(-c3cc[nH]c3)c2c1)c1cncn(Cc2ccc(F)c(F)c2)c1=O` [II-88], the IC50 stood at 19 nM.

Regarding `CNc1ncnc2ccc(C#CCNC(=O)c3cncn(Cc4ccc(F)c(F)c4)c3=O)cc12` [II-1], the IC50 was 12 nM. As for `O=C(NCC#Cc1ccc2ncnc(NCCc3cccs3)c2c1)c1cncn(Cc2ccc(F)c(F)c2)c1=O` [II-12], the IC50 came out at 161 nM. Then `C[C@@H](c1cc(F)c(F)c(F)c1)n1cccc(C(=O)NCC#Cc2ccc3nccc(OC[C@@H]4CCCN(CCN5CCOCC5)C4)c3c2)c1=O` [I-125.20], with 17 nM. Then `CC(CNc1ncnc2ccc(C#CCNC(=O)c3cncn(Cc4ccc(F)c(F)c4)c3=O)cc12)c1ccccc1` (stereo not shown) [II-15], with 445 nM; and `CCN(CC)c1ncnc2ccc(C#CCNC(=O)c3c(C)n(CCO)n(Cc4ccc(F)c(F)c4)c3=O)cc12` [II-49], with 50 nM.

As to `CN(C)CCCOc1cnc2ccc(C#CCNC(=O)c3cncn(Cc4ccc(F)c(F)c4)c3=O)cc2n1` [I-17], the IC50 came out at 95 nM. In the case of `COc1ncnc2ccc(C#CCNC(=O)c3cncn(Cc4ccc(F)c(F)c4)c3=O)cc12` [I-2], the IC50 amounted to 37 nM.

For the molecule `CCN1CCC(CN(C)c2ncnc3ccc(C#CCNC(=O)c4cccn(Cc5ccc(F)c(F)c5)c4=O)cc23)C1` (stereo not shown) [II-47], the half-maximal inhibitory concentration (IC50) is 117 nM.

Regarding `COCCN1CCC(Nc2cnc3ccc(C#CCNC(=O)c4cccn([C@@H](CO)c5ccc(F)c(F)c5)c4=O)cc3n2)CC1` [I-48], the IC50 was determined as 3 nM. The figure for `COCCN1CCC(Nc2cnc3ccc(C#CCNC(=O)c4cccn([C@H](CO)c5cccc(F)c5)c4=O)cc3n2)CC1` [I-55] is 4 nM.
